Reference: publication PMC9779817, “Identification of New Purpuroine Analogues from the Arctic Echinodermata Pteraster militaris That Inhibit FLT3-ITD^+ AML Cell Lines” (International Journal of Molecular Sciences, 2022)
≈ marks a conversion by molar mass, not a printed value.

Key:
MV-4-11 = assay: Viability screening and IC50 determination, MTS assay; assay type: cell-based, human; parameters: key to Activity at ≤50 µM: Active: active compound was defined as ≤50% survival at one of the concentrations; Inactive; conditions: for Activity at ≤50 µM: MV-4-11, acute myeloid leukemia, screened at 10 and 50 µM, 72 h
Procedure: (§1) All cell lines were purchased from ATCC (Manassa, VA, USA) except MOLM-13 that was purchased from Leibniz Institute DSMZ (Braunschweig, Germany). Viability screening of compounds 1–3 at 10 and 50µM was performed by a colorimetric MTS assay. The cells were seeded into 96-well microtiter plates (Nunclon^TM Delta Surface, Thermo Scientific, Roskilde, Denmark) in RPMI-1640 supplemented with 10% FBS and 10µg/mL Gentamycin (assay media). The adherent cell lines A2058, HaCat and HT29 were seeded in a density of 2000 cells/well, MRC5 were seeded in a density of 4000 cells/well and SK-BR-3 and MDA-MB-468 were seeded in a density of 5000 cells/well. After incubation for 24 h in 37 °C and 5% CO2 the media was discarded and replaced by samples diluted in assay media, negative control (100% cell survival, 100% assay media) and positive control (0% cell survival, 90% assay media supplemented with 10% DMSO). The suspension cell lines MV-4-11 and MOLT-4 were directly seeded in a density of 10,000 cells/well and MOLM-13 and THP-1 were seeded in a density of 20,000 cells/well in assay media supplemented with sample. All samples were added in triplicates. Cells and samples were incubated for a total of 72 h (HepG2 cells were incubated for 24 h) at 37 °C and 5% CO2. Thereafter, 10% CellTiter 96®AQueous One Solution Reagent (G3581, Promega) containing tetrazolium compound [3-(4,5-dimethylthiazol-2-yl)-5-(3-carboxymethoxyphenyl)-2-(4-sulfophenyl)-2H-tetrazolium] and phenazine ethosulfate were added. After 1 h incubation the absorbances was measured at 485 nm with a DTX 880 and viability was calculated.

A2058 = assay: Viability screening, human melanoma cell line; assay type: cell-based; parameters: key: Active: active compound was defined as ≤50% survival at one of the concentrations; Inactive; conditions: screened at 10 and 50 µM, 72 h
Procedure: The flash fractions of P. militaris were assayed for activity against the human melanoma cancer cell line A2058 at 50 µg/mL. […] The flash fractions were also assayed against the human pathogenic bacterial strains Staphylococcus aureus, Enterococcus faecalis, Escherichia coli, Pseudomonas aeruginosa and Streptococcus agalactiae (Gr. B).
as §1

HT29 = assay: Viability screening, colorimetric MTS assay; assay type: cell-based; parameters: key: Active: active compound was defined as ≤50% survival at one of the concentrations; Inactive; conditions: HT29, colon cancer; screened at 10 and 50 µM; 72 h
Procedure: as §1

HaCat = assay: Viability screening, colorimetric MTS assay; assay type: cell-based; parameters: key: Active: active compound was defined as ≤50% survival at one of the concentrations; Inactive; conditions: keratinocytes (non-cancerous), screened at 10 and 50 µM, 72 h
Procedure: as §1

HepG2 = assay: Viability screening, colorimetric MTS assay; assay type: cell-based; parameters: key: Active: active compound was defined as ≤50% survival at one of the concentrations; Inactive; conditions: HepG2, liver hepatocellular carcinoma; screened at 10 and 50 µM; 24 h
Procedure: as §1

MDA-MB-468 = assay: Viability screening, colorimetric MTS assay; assay type: cell-based; parameters: key: Active: active compound was defined as ≤50% survival at one of the concentrations; Inactive; conditions: MDA-MB-468, breast cancer; screened at 10 and 50 µM; 72 h
Procedure: as §1

MOLT-4 = assay: Viability screening, colorimetric MTS assay; assay type: cell-based; parameters: key: Active: active compound was defined as ≤50% survival at one of the concentrations; Inactive; conditions: MOLT-4, acute lymphoblastic leukemia; screened at 10 and 50 µM; 72 h
Procedure: as §1

MRC5 = assay: Viability screening, colorimetric MTS assay; assay type: cell-based; parameters: key: Active: active compound was defined as ≤50% survival at one of the concentrations; Inactive; conditions: MRC5, lung fibroblasts (non-cancerous); screened at 10 and 50 µM; 72 h
Procedure: as §1

SK-BR-3 = assay: Viability screening, colorimetric MTS assay; assay type: cell-based; parameters: key: Active: active compound was defined as ≤50% survival at one of the concentrations; Inactive; conditions: SK-BR-3, breast cancer; screened at 10 and 50 µM; 72 h
Procedure: as §1

THP-1 = assay: Viability screening, colorimetric MTS assay; assay type: cell-based; parameters: key: Active: active compound was defined as ≤50% survival at one of the concentrations; Inactive; conditions: THP-1, acute monocytic leukemia; screened at 10 and 50 µM; 72 h
Procedure: as §1

MOLM-13 = assay: Viability screening, colorimetric MTS assay; assay type: cell-based, human; parameters: key: Active: active compound was defined as ≤50% survival at one of the concentrations; Inactive; conditions: MOLM-13, acute myeloid leukemia; screened at 10 and 50 µM; 72 h
Procedure: as §1

MV-4-11 cells [1] = assay: Cell cycle analysis (PI staining, flow cytometry); assay type: cell-based, human; conditions: 24 h, compared to control
Procedure: MV-4-11 cells were seeded into 24-well plates (Nunclon^TM Delta Surface, Thermo Scientific) in a density of 1 × 10^6 cells/mL supplemented with 26 µM, 52 µM or 104 µM of 1. The cells were incubated for 24 h and thereafter fixed in ice cold 70% EtOH. After washing the cells were stained with FxCycle™ PI/RNase Staining Solution (Invitrogen, MA, USA) according to manufacturer’s instructions. The cells were analysed by a CytoFLEX Flow cytometer (Beckman Coulter, CA, USA) and cell cycle phase determined in CytExpert software (Beckman Coulter).

MV-4-11 cells [2] = assay: Apoptosis assay (annexin V/PI staining, flow cytometry); assay type: cell-based, human; conditions: 26 µM (1 × IC50); 24 h
Procedure: To further investigate the cell death pathway activated by 1, an apoptosis assay was performed and the ability of 1 to induce apoptosis and/or necrosis in MV-4-11 cell line was evaluated by annexin V/PI staining (Figure 5). The cells were divided into 3 different populations: annexin V−/PI− (healthy cells), annexin V+/PI− (apoptotic cells) and annexin V+/PI+ (late apoptotic/necrotic cells). […] However, after 24 h and 48 h of incubation at the highest concentration of compound (104 µM), no increase in apoptotic cells were seen when compared to cells incubated with 52 µM.
MV-4-11 cells were seeded into 24-well plates (Nunclon^TM Delta Surface, Thermo Scientific) at a density of 1 × 10^6 cells/mL supplemented with 26 µM, 52 µM or 104 µM of 1 and incubated for 24 or 48 h at 37 °C an 5% CO2. Apoptotic and necrotic cells were labelled according to manufacturer’s instructions (Alexa Fluor^TM 488 Annexin V/Dead Cell Apoptosis Kit, Invitrogen) and analysed by a CytoFLEX Flow cytometer and CytExpert software (Beckman Coulter).

FLT3 WT = molecular target: T1, FLT3 WT (Homo sapiens, UniProt P36888); assay: Kinase binding assay (FRET tracer competition); conditions: concentrations tested up to 10 μM
T1 construct: purchased ThermoFisher Scientific PV3182
T1 sequence (P36888 564-993 limits assumed): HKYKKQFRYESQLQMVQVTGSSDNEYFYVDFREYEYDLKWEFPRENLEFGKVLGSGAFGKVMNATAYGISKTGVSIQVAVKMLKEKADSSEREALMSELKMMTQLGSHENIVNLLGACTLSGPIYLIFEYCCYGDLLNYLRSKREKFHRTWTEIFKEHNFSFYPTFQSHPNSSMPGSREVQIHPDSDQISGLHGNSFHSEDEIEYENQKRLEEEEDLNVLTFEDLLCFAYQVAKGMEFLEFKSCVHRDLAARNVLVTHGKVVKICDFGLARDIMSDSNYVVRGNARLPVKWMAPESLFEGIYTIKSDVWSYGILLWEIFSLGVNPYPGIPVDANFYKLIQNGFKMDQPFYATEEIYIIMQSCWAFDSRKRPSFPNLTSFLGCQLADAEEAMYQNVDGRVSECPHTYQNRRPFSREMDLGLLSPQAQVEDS
Procedure: (§2) A FRET signal is generated between an Europium-labelled tag, on the FLT3 kinase, and a fluorescent tracer with high binding affinity for the FLT3 active site.
(§3) Anti-GST-Eu-tagged monoclonal antibodies (anti-GST AB) were purchase from Cisbio (PerkinElmer Norge AS, catalogue number 61GSTKLA) and reconstituted in water at a final concentration of 333 nM. White, non-binding, round bottom 384 well microplates (reference number 4513) were purchased from Corning (Corning Inc, Kennebunk, ME, USA). The compounds were serially diluted into DMSO to 12 different concentrations. Each of these compound-containing DMSO solutions was further diluted 33 times in assay buffer A (50 mM HEPES pH 7.5, 10 mM MgCl2, 1 mM ethylene glycol-bis(β-aminoethyl ether)-N,N,N′,N′-tetraacetic acid (EGTA) and 0.01% BRIJ-35) and 5 μL of these solutions were dispensed in triplicates in 384 well plate. […] Fluorescence measurements were made using a EnVision 2104 Multilabel reader, (PerkinElmer, US), excitation wavelength was set to 340 nm and emission was read at both 615 nm (8.5 nm bandwidth) and 665 nm (7.5 nm bandwidth) over […] between excitation and emission measurements.

FLT3-ITD mutant = FLT3-ITD mutant (Homo sapiens, UniProt P36888); assay type: binding; conditions: concentrations tested up to 10 μM
Procedure: as §2, §3

Rhodotrula sp. = assay: Antifungal growth inhibition assay; assay type: cell-based; conditions: positive control
Procedure: (§4) The yeast strains Candida albicans (ATCC 10231) and Rhodotrula sp. and the Aurobasidium pollulans mold, were cultivated on potato dextrose agar with 2% glucose at room temperature. Fungal spores were dissolved in potato dextrose broth (Difco Laboratories, USA) and the cell concentration was determined and adjusted after counting in a Bürker chamber. […] The assay plates were incubated in a moist dark chamber at 37 °C. […] Growth inhibition was determined microscopically after 42 h incubation.

Aurobasidium pollulans = assay: Antifungal growth inhibition assay; assay type: cell-based; conditions: positive control
Procedure: as §4

| SMILES | Activity at ≤50 µM (MV-4-11) | Activity at ≤50 µM (A2058) | Activity at ≤50 µM (HT29) | Activity at ≤50 µM (HaCat) | Activity at ≤50 µM (HepG2) | Activity at ≤50 µM (MDA-MB-468) | Activity at ≤50 µM (MOLT-4) | Activity at ≤50 µM (MRC5) | Activity at ≤50 µM (SK-BR-3) | Activity at ≤50 µM (THP-1) | Activity at ≤50 µM (MOLM-13) | other results |
| --- | --- | --- | --- | --- | --- | --- | --- | --- | --- | --- | --- | --- |
| COC(=O)[C@@H](CCOc1c(Cl)cc(Br)cc1Br)[N+](C)(C)C [compound 2, purpuroine L] | I | I | I | I | I | I | I | I | I | I | I | – |
| COC(=O)[C@@H](CCOc1c(Cl)cc(Br)cc1Cl)[N+](C)(C)C [compound 3, purpuroine M] | I | I | I | I | I | I | I | I | I | I | I | – |
| COC(=O)[C@@H](CCOc1c(Br)cc(Br)cc1Br)[N+](C)(C)C [compound 1, purpuroine K] | Active | I | I | I | I | I | I | I ^2 | I | I | Active | IC50 (MV-4-11; Homo sapiens, MV4-11, MV-4-11 cell line, read-out: IC50 against MV-4-11): 26 ± 1.2 µM; decrease of cells entering G2/M-phase (MV-4-11 cells [1]; 52 µM): 26%; decrease of cells entering the S-phase (MV-4-11 cells [1]; 52 µM): 23%; increase in the number of cells arrested in G0/G1 phase (MV-4-11 cells [1]; 52 µM): 11%; decrease of cells entering G2/M-phase (MV-4-11 cells [1]; 104 µM): 55%; decrease of cells entering the S-phase (MV-4-11 cells [1]; 104 µM): 38%; increase in the number of cells arrested in G0/G1 phase (MV-4-11 cells [1]; 104 µM): 19%; increase in percentage of apoptotic cells compared to control (MV-4-11 cells [2]): 94%; binding to FLT3 WT active site (FLT3 WT): does not bind; binding to FLT-ITD mutant active site (FLT3-ITD mutant): does not bind |
| C[C@@H]1[C@H](O)[C@@H](C)/C=C/C=C/C=C/C=C/C=C/C=C/C=C/[C@H](O[C@@H]2O[C@H](C)[C@@H](O)[C@H](N)[C@@H]2O)C[C@@H]2O[C@](O)(C[C@@H](O)C[C@@H](O)[C@H](O)CC[C@@H](O)C[C@@H](O)CC(=O)O[C@H]1C)C[C@H](O)[C@H]2C(=O)O [amphotericin-B] | – | – | – | – | – | – | – | – | – | – | – | MIC (Rhodotrula sp.): 8.7 µM (≈ 8.04 µg/mL); MIC (Aurobasidium pollulans): 8.7 µM (≈ 8.04 µg/mL) |
